Consider 2 compounds from patent US20240197670A1, “TREATMENT OF HERPES ZOSTER WITH TOPICAL TETRACAINE” (PAGARI LIFE SCIENCE CORP, priority 2022, published 2024).

In series [1] the test system is VZV-ORF57-Luc (Varicella Zoster Virus) in adult human skin. As to the kind of experiment: Antiviral evaluation against VZV in skin organ culture (SOC), bioluminescence VZV yield as fold change. Type of series: cell-based. As to the method: The goal of this study was to evaluate the effect of tetracaine against VZV in a skin organ culture (SOC) model and to determine an appropriate duration of treatment in skin to prevent VZV spread. Tetracaine, either the formulation of Example 2 or the formulation of Example 7, was tested as a topical treatment (formulated in the vehicle of Example 7) against VZV infections. Control formulations (cidofovir, CDV) were formulated in cocoa butter.
(§1) Adult human skin from a reduction mammoplasty was cleaned and cut to a thickness of 1 mm, maintaining normal skin architecture while removing underlying adipose and some of the subdermal and connective tissue. Skin was inoculated by scarification with VZV-ORF57-Luc (cell-associated virus, from a frozen stock). VZV-ORF57-Luc expresses firefly luciferase. Infected skin was placed on NetWells, which are designed to hold skin at the air-liquid interface. This orientation keeps the epidermis in contact with the air so it remains dry, while the dermis remains moist and in contact with the medium. Infected skin was scanned by IVIS Spectrum on DPI (Day Post Inoculation) 1 and 3, and prior to treatment being initiated. All treatments were started on DPI 3, but removed after different amounts of time, including after 8, 24, 48, or 72 hours. All compounds were formulated in either the test vehicle or cocoa butter (cidofovir, CDV) and applied directly to the epidermis. To remove treatment, the compound was gently wiped off the surface of the skin, and the entire skin explant was submerged and gently swirled in phosphate-buffered saline (PBS) for a few seconds to remove any residue. The topical treatment was removed prior to imaging by gently wiping it off the epidermis.
FIGS. 4A-4D show VZV yield as fold change, which was calculated as the total flux (photons/sec) normalized to DPI 1 for each skin explant. Imaging started on DPI 1 and was performed every day or every other day starting on DPI 3, depending on the group. In FIGS. 4A-4D, the treatment period is highlighted by a gray box. […]

Another series has as its system Adult human skin. Put plainly: Skin appearance / toxicity in skin organ culture. Conditions: for skin color change: skin treated for 48 or 72 hours, more intense in 72 hour group, only where applied. The format is cell-based.
Description: as §1
In this study, tetracaine was placed as a small drop in the center of the skin. A color change in the skin treated for 48 or 72 hours was observed, with more intense coloring in the 72 hour group. […] Each row in FIG. 5 depicts the same piece of skin over the course of the assay.

For series [2] the following is noted: cited from earlier work.

For `Nc1ccn(C[C@@H](CO)OCP(=O)(O)O)c(=O)n1` [CDV, cidofovir], the “virus spread compared to cocoa butter vehicle” value in series [1] (formulated in cocoa butter, by end of treatment phase (FIG. 4D, 72 hours), Student's t-test p<0.01) was “significantly lower virus spread”. Also, in the series with Adult human skin, the skin color change entry is listed as “No color change”.

As for `CCCCNc1ccc(C(=O)OCCN(C)C)cc1` [Tetracaine], the “effect against VZV-infected skin as a topical treatment (study conclusion)” value in series [1] (skin organ culture) is on record as “highly effective”. The “effect on VZV yield vs test vehicle” value in series [1] (topical treatments of 24-72 hours started DPI 3, one-way ANOVA) is recorded as “highly effective”. Further, in the series on Adult human skin (low bioluminescent signals in treated explants even after 3 days), the “toxicity to the skin” value is reported as “not toxic to the skin”. The skin color change result in the series on Adult human skin is listed as “color change”. For the same compound, the “solubility in alcohol, ether, benzene and chloroform” value in series [2] (alcohol, ether, benzene, chloroform) is recorded as “soluble”. In addition, the solubility in water result in series [2] (water) is listed as “very slightly soluble”.
